Source: the NIST ThermoML archive (doi:10.1016/j.tca.2010.11.013)

Test: wn = mass fraction of the nth substance listed
Settings: 101 kPa, Liquid; for speed of sound: Sing-around technique in a fixed-path interferometer; for mass density: Vibrating tube method

OC[C@H]1O[C@@](CO)(O[C@H]2O[C@H](CO)[C@@H](O)[C@H](O)[C@H]2O)[C@@H](O)[C@@H]1O [D-sucrose] + O
Settings | mass density, 288.15 K [kg/m3] | mass density, 293.15 K [kg/m3] | mass density, 298.15 K [kg/m3] | mass density, 303.15 K [kg/m3] | mass density, 308.15 K [kg/m3] | speed of sound, 288.15 K [m/s] | speed of sound, 293.15 K [m/s] | speed of sound, 298.15 K [m/s] | speed of sound, 303.15 K [m/s] | speed of sound, 308.15 K [m/s]
w1 = 0.0214 | 1007.5 | 1006.55 | 1005.34 | 1003.89 | 1002.24 | 1473.1 | 1489 | 1503 | 1515.1 | 1525.3
w1 = 0.0419 | 1015.59 | 1014.59 | 1013.33 | 1011.85 | 1010.16 | 1479.3 | 1495.1 | 1508.8 | 1520.5 | 1530.4
w1 = 0.0614 | 1023.45 | 1022.4 | 1021.1 | 1019.58 | 1017.85 | 1486.3 | 1501.8 | 1515.3 | 1526.8 | 1536.7

O=C(CO)[C@@H](O)[C@H](O)[C@H](O)CO [D-fructose] + O
Settings | mass density, 288.15 K [kg/m3] | mass density, 293.15 K [kg/m3] | mass density, 298.15 K [kg/m3] | mass density, 303.15 K [kg/m3] | mass density, 308.15 K [kg/m3] | speed of sound, 288.15 K [m/s] | speed of sound, 293.15 K [m/s] | speed of sound, 298.15 K [m/s] | speed of sound, 303.15 K [m/s] | speed of sound, 308.15 K [m/s]
w1 = 0.0209 | – | – | 1005.17 | 1003.7 | 1002.02 | 1476.2 | 1492 | – | 1517.3 | 1527
w1 = 0.0389 | 1014.62 | 1013.56 | 1012.26 | – | 1009 | 1483.1 | 1498.5 | 1512 | – | 1533.2
w1 = 0.0611 | 1023.64 | 1022.5 | 1021.11 | 1019.51 | 1017.71 | – | 1507.8 | 1520.8 | 1531.8 | –
